Data: ChEMBL document CHEMBL5725762, “Tetracyclic pyridone compounds as antivirals” (2018)

Test: HBSAg ELISA assay: HepG2-Clone42 cells were seeded in into black clear-bottom 96-well plates at a concentration of 6.0×10^4 cells/well. 24 hours post-seeding, the cells were treated with 200 μl/well of media containing five-fold serial dilutions of compounds in DMSO. DMSO alone was used as the no drug control. The final DMSO concentration in all wells was 0.5%. The HBsAg ELISA kit (Alpha Diagnostic International, San Antonio, Tex., USE, Catalog #4110) was used to determine the level (semi-quantitative) of secreted HBV sAg.

Going from `COCCCOc1cc2c(cc1Cl)-c1cc(=O)c(C(=O)O)cn1[C@H]1[C@@H]2CCC1(C)C` to `COCCCOc1cc2c(cc1OC)-c1cc(=O)c(C(=O)O)cn1C1[C@@H]2COC1(C)C` (stereo partly drawn), the EC50 rises from 0.1 nM to 1 nM (10-fold). The first is the more potent here.

With `COCCCOc1cc2c(cc1OC)-c1c(F)c(=O)c(C(=O)O)cn1C1[C@@H]2OCC1(C)C` (stereo partly drawn) the EC50 was 0.8 nM.
